In patent publication US20200010482A1, “INHIBITORS OF BETA SECRETASE” (Janssen Pharmaceutica NV, priority 2017, published 2020):

What was measured:
[1] = test system: Abeta total produced and secreted by SKNBE2 cells expressing hAPP695; assay: Cellular αLisa assay in SKNBE2 cells, Abeta total; assay type: cell-based, human; settings: SKNBE2 cells expressing hAPP695, 18 hours incubation
Protocol: In two αLisa assays the levels of Abeta total and Abeta 1-42 produced and secreted into the medium of human neuroblastoma SKNBE2 cells are quantified. The assay is based on the human neuroblastoma SKNBE2 expressing the wild type Amyloid Precursor Protein (hAPP695). The compounds are diluted and added to these cells, incubated for 18 hours and then measurements of Abeta 1-42 and Abeta total are taken. Abeta total and Abeta 1-42 are measured by sandwich αLisa. αLisa is a sandwich assay using biotinylated antibody AbN/25 attached to streptavidin coated beads and antibody Ab4G8 or cAb42/26 conjugated acceptor beads for the detection of Abeta total and Abeta 1-42 respectively. In the presence of Abeta total or Abeta 1-42, the beads come into close proximity. The excitation of the donor beads provokes the release of singlet oxygen molecules that trigger a cascade of energy transfer in the acceptor beads, resulting in light emission. Light emission is measured after 1 hour incubation (excitation at […] and emission at 615 nm).
A best-fit curve is fitted by a minimum sum of squares method to the plot of % Controlmin versus compound concentration. From this an IC50 value (inhibitory concentration causing 50% inhibition of activity) can be obtained. • LC=Median of the low control values=Low control: cells preincubated without compound, without biotinylated Ab in the αLisa • HC=Median of the High control values=High Control: cells preincubated without compound
% Effect=100−[(sample−LC)/(HC−LC)*100]
% Control=(sample/HC)*100
% Controlmin=(sample−LC)/(HC−LC)*100

β-secretase I (BACE1) = β-secretase I (BACE1) (Homo sapiens, UniProt P56817); assay: Biochemical assay, automated (CyclOps), BACE1; settings: automated CyclOps bioassay; for IC50: read-out: AUTOMATED ASSAY BACE1 pIC50 (converted)
Protocol: (§1) Unless otherwise indicated all biochemicals were purchased from Sigma-Aldrich Chemical Company, Poole, Dorset, U.K. and non-aqueous solvents, of analytical or higher grade, were purchased from ThermoFisher Scientific, Loughborough, U.K. MilliQ water (Elix 5 & MilliQ Gradient; Merck Millipore) was used as the base aqueous solvent to make up the biological buffers. Base assay buffer was prepared by adding a 50 mM solution of citric acid (1.00244; Merck Biosciences) to stirring solution of 50 mM trisodium citrate (1.06448; Merck Biosciences) until a final pH of 5.0 was achieved. […] All assays were routinely carried out in 384-well assay plates (Costar 4514; Corning Life Sciences) and incubated at 37±1° C. for 60 min. prior to reading the endpoint fluorescence intensity. The (7-methoxyl coumarin-4-yl)acetic acid based substrate β-secretase substrate VI (M2465; Bachem) was prepared as a 1 mM stock in 100% DMSO (D/4121/PB08; ThermoFisher). Assay buffer was prepared by adding DMSO to base buffer to a final concentration of 1% (vol./vol.). β-secretase I (18.64 μM; “BACE1”) and β-secretase II (4.65 μM; “BACE2”) were obtained from Janssen Pharmaceutica, Beerse, Belgium and were stored as frozen aliquots (˜20 μl) and thawed as required.
(§2) Typically 12.5 μl of assay buffer was dispensed to rows B to P of the assay plate. To row A was added 18.75 μl of test compound diluted appropriately in assay buffer. A 6.25 μl aliquot of sample was transferred from row A to row B and the sample mixed three times by pipette. The process was repeated down the plate and 6.25 μl of solution discarded at row N post-mix. Rows O and P were designated as the positive and negative controls. To row P was added 6.25 μl base buffer. To rows A to O was added 6.25 μl enzyme (freshly prepared 40 nM BACE1 or 40 nM BACE2) diluted in base buffer. To initiate the assay 6.25 μl of freshly prepared 80 μM substrate, made up by diluting the 1 mM in 100% DMSO solution into HPLC grade water (Optima W6-212; ThermoFisher), was added to all the wells. The assay plate was covered and incubated at 37±1° C. for 60 min. The fluorescence intensity of the wells was read at 360/405 nm (excitation/emission) utilising a nine reads per well protocol (50 ms integration; density of 3, 0.25 mm spacing; SpectraMAX Paradigm plate reader; TUNE cartridge; SoftMax Pro v 6.3 software; Molecular Devices UK Ltd., Wokingham, Berkshire, UK) and outputting the median value of the nine reads as a text file. Data analysis was carried out using Prism software v 6.3 (GraphPad Inc., San Diego, Calif., USA) using the non-linear regression analysis models supplied by the vendor. For IC50 determinations the four parameter logistic variable slope model was used to fit the raw fluorescence intensity data with the ‘bottom’ fixed to the negative control.
(§3) The CyclOps bioassay module consisted of a fraction collection station, a reagent station, liquid handling robotics, plate store and an integrated plate reader (SpectraMAX Paradigm, TUNE cartridge, SoftMax Pro v 6.3; Molecular Devices). The fraction collection station composed of a 384 well collection plate (P-384-240SQ-C; Axygen, Union City, Calif., USA) mounted on a H-portal carriage (Festo AG & Co. KG, Esslingen, Germany), a syringe drive and a two-way six port injection valve fitted with a 200 μl loop (VICI AG International, Schenkon Switzerland). The output of the injection valve was addressable to all the positions of a 384 well collection plate. The reagent station consisted of hydraulically cooled (10-12° C.) aluminium segments; each manufactured to house a SBS microtiter plate footprint. Independent addressable reagent stations were housed within these sections. Where required, custom aluminium housings were used to accommodate standard laboratory plastic ware (e.g. Eppendorf tubes, Falcon tubes, etc.). As and when required the reagent reservoirs were covered and the lids contained holes through which the Teflon-coated probe could access solutions. […]

β-secretase II (BACE2) = biological target: T1, β-secretase II (BACE2) (Homo sapiens, UniProt Q9Y5Z0); assay: Biochemical assay, automated (CyclOps), BACE2; settings: automated CyclOps bioassay; for IC50: read-out: AUTOMATED ASSAY BACE2 pIC50 (converted)
T1 sequence (Q9Y5Z0 63-518): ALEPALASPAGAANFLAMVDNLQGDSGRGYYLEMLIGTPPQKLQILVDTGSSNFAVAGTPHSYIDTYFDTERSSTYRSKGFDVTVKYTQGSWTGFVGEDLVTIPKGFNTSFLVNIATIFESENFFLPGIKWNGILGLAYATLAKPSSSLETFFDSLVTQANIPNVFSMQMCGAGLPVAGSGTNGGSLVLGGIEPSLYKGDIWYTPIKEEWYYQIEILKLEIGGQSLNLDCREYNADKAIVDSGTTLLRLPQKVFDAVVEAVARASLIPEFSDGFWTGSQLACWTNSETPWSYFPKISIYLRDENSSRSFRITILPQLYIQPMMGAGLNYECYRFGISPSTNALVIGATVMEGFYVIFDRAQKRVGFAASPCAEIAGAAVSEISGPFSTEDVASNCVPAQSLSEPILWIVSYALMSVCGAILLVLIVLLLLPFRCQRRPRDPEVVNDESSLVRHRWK
Protocol: as §1, §2, §3

Chain of β-secretase I (BACE1) (P56817 46-501): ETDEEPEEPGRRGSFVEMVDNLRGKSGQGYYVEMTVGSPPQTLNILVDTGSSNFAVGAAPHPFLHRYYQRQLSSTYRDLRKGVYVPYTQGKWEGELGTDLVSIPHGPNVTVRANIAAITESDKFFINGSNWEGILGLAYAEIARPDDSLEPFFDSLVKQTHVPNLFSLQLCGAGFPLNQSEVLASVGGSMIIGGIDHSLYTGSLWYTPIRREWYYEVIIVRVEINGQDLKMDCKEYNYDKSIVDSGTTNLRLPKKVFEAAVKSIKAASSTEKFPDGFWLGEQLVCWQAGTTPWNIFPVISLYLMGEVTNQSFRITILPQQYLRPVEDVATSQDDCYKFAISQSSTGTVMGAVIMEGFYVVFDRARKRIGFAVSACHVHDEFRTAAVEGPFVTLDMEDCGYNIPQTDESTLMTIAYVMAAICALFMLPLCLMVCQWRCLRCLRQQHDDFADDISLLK

| SMILES | IC50 (β-secretase I (BACE1)) [nM] | IC50 (β-secretase II (BACE2)) [nM] | AUTOMATED ASSAY BACE1 pIC50 (β-secretase I (BACE1)) | AUTOMATED ASSAY BACE2 pIC50 (β-secretase II (BACE2)) | further results |
| --- | --- | --- | --- | --- | --- |
| COc1ncc(C#N)c2c1C[C@]1(c3ccccc3F)N=C(N)SC[C@@H]1C2 (racemic) [Compound 22] | – | – | – | – | IC50 ([1]; Homo sapiens, SKNBE2, 18 h, read-out: CELLULAR αLISA ASSAY IN SKNBE2 CELLS ABETA TOTAL pIC50 (converted)): 49 nM |
| COC/C=C/c1cnc(OC)c2c1C[C@H]1CSC(N)=N[C@@]1(c1ccc(F)cc1F)C2 [Compound 47] | 9.77 | 5.89 | – | – | – |
| COc1ncc(-c2ccccc2)c2c1C[C@]1(c3ccc(F)cc3F)N=C(N)SC[C@@H]1C2 [Compound 49] | – | – | 8.6 | 9.02 | CELLULAR αLISA ASSAY IN SKNBE2 CELLS ABETA TOTAL pIC50 [1]: 8.75 |
| COc1ncc(-c2ccccc2C)c2c1C[C@]1(c3ccc(F)cc3F)N=C(N)SC[C@@H]1C2 [Compound 55] | – | – | 7.77 | 7.3 | – |
| COc1ncc(-c2cc(Cl)ccc2C)c2c1C[C@]1(c3ccc(F)cc3F)N=C(N)SC[C@@H]1C2 [Compound 60] | – | – | 7.65 | 6.73 | – |
| COc1cc(C)c(-c2cnc(OC)c3c2C[C@H]2CSC(N)=N[C@@]2(c2ccc(F)cc2F)C3)cn1 [Compound 106] | 4.68 | 75.9 | – | – | – |
